# Reference: PubChem BioAssay (NCI)
#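 Compound exposure: 48 hours, 5 concentrations, 96-well plates. TGI: concentration producing complete growth inhibition.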
# What was measured:
# Experiment in all cases: NCI-60 cell line screen, 48 h
# 786-0 renal = test system: 786-0 renal
# A498 renal = test system: A498 renal
# A549 NSCLC = test system: A549 NSCLC
# ACHN renal = test system: ACHN renal
# BT-549 breast = test system: BT-549 breast
# CAKI-1 renal = test system: CAKI-1 renal
# CCRF-CEM leukemia = test system: CCRF-CEM leukemia
# COLO 205 colon = test system: COLO 205 colon
# DLD-1 colon = test system: DLD-1 colon
# DMS 114 small cell lung = test system: DMS 114 small cell lung
# DMS 273 small cell lung = test system: DMS 273 small cell lung
# DU-145 prostate = test system: DU-145 prostate
# EKVX NSCLC = test system: EKVX NSCLC
# HCC-2998 colon = test system: HCC-2998 colon
# HCT-116 colon = test system: HCT-116 colon
# HCT-15 colon = test system: HCT-15 colon
# HL-60(TB) leukemia = test system: HL-60(TB) leukemia
# HOP-18 NSCLC = test system: HOP-18 NSCLC
# HOP-62 NSCLC = test system: HOP-62 NSCLC
# HOP-92 NSCLC = test system: HOP-92 NSCLC
# HS 578T breast = test system: HS 578T breast
# HT29 colon = test system: HT29 colon
# IGROV1 ovarian = test system: IGROV1 ovarian
# K-562 leukemia = test system: K-562 leukemia
# KM12 colon = test system: KM12 colon
# KM20L2 colon = test system: KM20L2 colon
# LOX IMVI melanoma = test system: LOX IMVI melanoma
# LXFL 529 NSCLC = test system: LXFL 529 NSCLC
# M14 melanoma = test system: M14 melanoma
# M19-MEL melanoma = test system: M19-MEL melanoma
# MALME-3M melanoma = test system: MALME-3M melanoma
# MDA-MB-231 breast = test system: MDA-MB-231 breast
# MOLT-4 leukemia = test system: MOLT-4 leukemia
# NCI-H226 lung = test system: NCI-H226 lung
# NCI-H23 lung = test system: NCI-H23 lung
# NCI-H460 lung = test system: NCI-H460 lung
# NCI-H522 lung = test system: NCI-H522 lung
# OVCAR-3 ovarian = test system: OVCAR-3 ovarian
# OVCAR-4 ovarian = test system: OVCAR-4 ovarian
# OVCAR-5 ovarian = test system: OVCAR-5 ovarian
# OVCAR-8 ovarian = test system: OVCAR-8 ovarian
# PC-3 prostate = test system: PC-3 prostate
# RPMI-8226 leukemia = test system: RPMI-8226 leukemia
# RXF 393 renal = test system: RXF 393 renal
# SF-268 CNS = test system: SF-268 CNS
# SF-295 CNS = test system: SF-295 CNS
# SF-539 CNS = test system: SF-539 CNS
# SK-MEL-2 melanoma = test system: SK-MEL-2 melanoma
# SK-MEL-28 melanoma = test system: SK-MEL-28 melanoma
# SK-MEL-5 melanoma = test system: SK-MEL-5 melanoma
# SK-OV-3 ovarian = test system: SK-OV-3 ovarian
# SN12C renal = test system: SN12C renal
# SNB-19 CNS = test system: SNB-19 CNS
# SNB-75 CNS = test system: SNB-75 CNS
# SNB-78 CNS = test system: SNB-78 CNS
# SR leukemia = test system: SR leukemia
# SW-620 colon = test system: SW-620 colon
# T-47D breast = test system: T-47D breast
# TK-10 renal = test system: TK-10 renal
# U251 CNS = test system: U251 CNS
# UACC-257 melanoma = test system: UACC-257 melanoma
# UACC-62 melanoma = test system: UACC-62 melanoma
# UO-31 renal = test system: UO-31 renal
# XF 498 CNS = test system: XF 498 CNS
smiles,measurement,setting,value
CC[C@@]1(O)C(=O)OCc2c1cc1n(c2=O)Cc2c-1nc1ccccc1c2Cl,TGI,786-0 renal,0.126 µM
same,TGI,A498 renal,0.352 µM
same,TGI,A549 NSCLC,3.76 µM
same,TGI,ACHN renal,0.0684 µM
same,TGI,BT-549 breast,4.89 µM
same,TGI,CAKI-1 renal,1.99 µM
same,TGI,CCRF-CEM leukemia,0.172 µM
same,TGI,COLO 205 colon,27.4 µM
same,TGI,DLD-1 colon,63.4 µM
same,TGI,DMS 114 small cell lung,2.06 µM
same,TGI,DMS 273 small cell lung,0.578 µM
same,TGI,DU-145 prostate,0.104 µM
same,TGI,EKVX NSCLC,33.6 µM
same,TGI,HCC-2998 colon,9.58 µM
same,TGI,HCT-116 colon,1.11 µM
same,TGI,HCT-15 colon,39.5 µM
same,TGI,HL-60(TB) leukemia,0.132 µM
same,TGI,HOP-18 NSCLC,18.3 µM
same,TGI,HOP-62 NSCLC,0.0206 µM
same,TGI,HOP-92 NSCLC,2.07 µM
same,TGI,HS 578T breast,43.3 µM
same,TGI,HT29 colon,5.62 µM
same,TGI,IGROV1 ovarian,16 µM
same,TGI,K-562 leukemia,> 100 µM
same,TGI,KM12 colon,1.83 µM
same,TGI,KM20L2 colon,28.7 µM
same,TGI,LOX IMVI melanoma,0.387 µM
same,TGI,LXFL 529 NSCLC,34.7 µM
same,TGI,M14 melanoma,0.318 µM
same,TGI,M19-MEL melanoma,3.43 µM
same,TGI,MALME-3M melanoma,12.6 µM
same,TGI,MDA-MB-231 breast,> 80.3 µM
same,TGI,MOLT-4 leukemia,0.113 µM
same,TGI,NCI-H226 lung,0.022 µM
same,TGI,NCI-H23 lung,0.028 µM
same,TGI,NCI-H460 lung,0.101 µM
same,TGI,NCI-H522 lung,1.28 µM
same,TGI,OVCAR-3 ovarian,4.84 µM
same,TGI,OVCAR-4 ovarian,4.61 µM
same,TGI,OVCAR-5 ovarian,3.65 µM
same,TGI,OVCAR-8 ovarian,2.13 µM
same,TGI,PC-3 prostate,> 100 µM
same,TGI,RPMI-8226 leukemia,1.42 µM
same,TGI,RXF 393 renal,0.116 µM
same,TGI,SF-268 CNS,12.6 µM
same,TGI,SF-295 CNS,0.511 µM
same,TGI,SF-539 CNS,0.022 µM
same,TGI,SK-MEL-2 melanoma,7.72 µM
same,TGI,SK-MEL-28 melanoma,63.9 µM
same,TGI,SK-MEL-5 melanoma,0.134 µM
same,TGI,SK-OV-3 ovarian,4.29 µM
same,TGI,SN12C renal,0.683 µM
same,TGI,SNB-19 CNS,15.5 µM
same,TGI,SNB-75 CNS,0.259 µM
same,TGI,SNB-78 CNS,87.5 µM
same,TGI,SR leukemia,0.186 µM
same,TGI,SW-620 colon,39.7 µM
same,TGI,T-47D breast,0.349 µM
same,TGI,TK-10 renal,80.8 µM
same,TGI,U251 CNS,0.445 µM
same,TGI,UACC-257 melanoma,7.01 µM
same,TGI,UACC-62 melanoma,0.107 µM
same,TGI,UO-31 renal,0.109 µM
same,TGI,XF 498 CNS,2.15 µM
